# Measured values: ChEMBL document CHEMBL1145380, “Optimization of 1,3,4-benzotriazepine-based CCK(2) antagonists to obtain potent, orally active inhibitors of gastrin-mediated gastric acid secretion” (J Med Chem, 2007)
# Target: T1, Cholecystokinin receptor type A (Homo sapiens, UniProt P32238)
# T1 sequence (P32238 whole entry): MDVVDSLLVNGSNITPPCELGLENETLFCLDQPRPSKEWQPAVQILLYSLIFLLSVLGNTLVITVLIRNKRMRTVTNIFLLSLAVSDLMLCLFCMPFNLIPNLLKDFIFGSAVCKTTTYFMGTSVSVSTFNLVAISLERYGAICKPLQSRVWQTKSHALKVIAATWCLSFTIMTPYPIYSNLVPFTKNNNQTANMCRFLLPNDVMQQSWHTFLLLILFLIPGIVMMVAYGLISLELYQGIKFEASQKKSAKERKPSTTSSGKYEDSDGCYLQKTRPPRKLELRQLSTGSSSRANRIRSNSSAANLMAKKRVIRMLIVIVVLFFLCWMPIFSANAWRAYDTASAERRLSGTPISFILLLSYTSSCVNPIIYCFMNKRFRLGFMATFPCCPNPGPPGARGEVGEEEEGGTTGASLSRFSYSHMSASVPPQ
# Test: Displacement of [3H]L-364718 from human recombinant CCK1 receptor expressed in PC3 cells
# Type: cell-based, PC-3
# Settings: not given
row,Compound,Ki [nM]
1,CC(C)(C)C(=O)CN1C(=O)N(CC(=O)Nc2cccc(NCC(=O)O)c2)N=C(C2CCCCC2)c2ccccc21,8510
2,CC(C)(C)C(=O)CN1C(=O)N(CC(=O)Nc2cccc(OCC(=O)O)c2)N=C(C2CCCCC2)c2ccccc21,4070
3,CC(C)(C)C(=O)CN1C(=O)N(CC(=O)Nc2cccc(C(=O)O)c2)N=C(C23CC4CC(CC(C4)C2)C3)c2ccccc21,372
4,CC(C)(C)C(=O)CN1C(=O)N(CC(=O)Nc2cccc(SCC(=O)O)c2)N=C(C2CCCCC2)c2ccccc21,646
5,CN(c1cccc(NC(=O)CN2N=C(C3CCCCC3)c3ccccc3N(CC(=O)C(C)(C)C)C2=O)c1)c1nn[nH]n1,6460
6,O=C(O)c1cccc(NC(=O)c2nc(C3CCCCC3)[nH]c2COC23CC4CC(CC(C4)C2)C3)c1,> 10000
7,CC(C)(C)C(=O)CN1C(=O)N(CC(=O)Nc2cccc(C(=O)NS(C)(=O)=O)c2)N=C(C2CCCCC2)c2ccccc21,2950
8,O=C(CN1N=C(C2CCCCC2)c2ccccc2N(CC(=O)C23CC4CC(CC(C4)C2)C3)C1=O)Nc1cccc(C(=O)O)c1,1910
9,CC(C)(C)C(=O)CN1C(=O)N(CC(=O)Nc2cccc(S(=O)(=O)CC(=O)O)c2)N=C(C2CCCCC2)c2ccccc21,> 10000

# Next, values leading:
row,Ki [nM],Compound
1,> 10000,CN1C(=O)N(CC(=O)Nc2cccc(C(=O)O)c2)N=C(C2CCCCC2)c2ccccc21
2,5750,CC(C)(C)C(=O)CN1C(=O)N(CC(=O)Nc2cccc(C(=O)O)c2)N=C(C2CCCCCC2)c2ccccc21
3,> 10000,O=C(CN1N=C(C2CCCCC2)c2ccccc2N(CC(=O)C2CCCC2)C1=O)Nc1cccc(C(=O)O)c1
4,> 10000,CC(C)CCN1C(=O)N(CC(=O)Nc2cccc(C(=O)O)c2)N=C(C2CCCCC2)c2ccccc21
5,> 10000,CC(C)(C)C(=O)CN1C(=O)N(CC(=O)Nc2cccc(C(=O)O)c2)N=C(C2CCCC2)c2ccccc21
6,> 10000,O=C(CN1N=C(C2CCCCC2)c2ccccc2N(CC(=O)N2CCCC2)C1=O)Nc1cccc(C(=O)O)c1
7,> 10000,Cc1ccccc1C(=O)CN1C(=O)N(CC(=O)Nc2cccc(C(=O)O)c2)N=C(C2CCCCC2)c2ccccc21
8,> 10000,CC(=O)CN1C(=O)N(CC(=O)Nc2cccc(C(=O)O)c2)N=C(C2CCCCC2)c2ccccc21
9,> 10000,CC(C)(C)C(=O)CN1C(=O)N(CC(=O)Nc2cccc(C(=O)O)c2)N=C(C2CCCCC2)c2ccccc21

# Target: T1, Cholecystokinin receptor type A
# Test: Displacement of [3H]L-364718 from human recombinant CCK1 receptor expressed in CHOK1 cells
# Type: cell-based, CHO-K1
# Settings: not given
row,Compound,Ki [nM]
1,O=C(CN1N=C(C2CCCCC2)c2ccccc2N(CC(=O)C2CCCCC2)C1=O)Nc1cccc(C(=O)O)c1,7940
2,CN(CC(=O)O)c1cccc(NC(=O)CN2N=C(C3CCCCC3)c3ccccc3N(CC(=O)C(C)(C)C)C2=O)c1,6460
3,CC(C)(C)C(=O)CN1C(=O)N(CC(=O)Nc2cccc(Cc3nnn[nH]3)c2)N=C(C2CCCCC2)c2ccccc21,> 10000

# Target: T2, Gastrin/cholecystokinin type B receptor (Rattus norvegicus, UniProt P30553)
# T2 sequence (P30553 whole entry): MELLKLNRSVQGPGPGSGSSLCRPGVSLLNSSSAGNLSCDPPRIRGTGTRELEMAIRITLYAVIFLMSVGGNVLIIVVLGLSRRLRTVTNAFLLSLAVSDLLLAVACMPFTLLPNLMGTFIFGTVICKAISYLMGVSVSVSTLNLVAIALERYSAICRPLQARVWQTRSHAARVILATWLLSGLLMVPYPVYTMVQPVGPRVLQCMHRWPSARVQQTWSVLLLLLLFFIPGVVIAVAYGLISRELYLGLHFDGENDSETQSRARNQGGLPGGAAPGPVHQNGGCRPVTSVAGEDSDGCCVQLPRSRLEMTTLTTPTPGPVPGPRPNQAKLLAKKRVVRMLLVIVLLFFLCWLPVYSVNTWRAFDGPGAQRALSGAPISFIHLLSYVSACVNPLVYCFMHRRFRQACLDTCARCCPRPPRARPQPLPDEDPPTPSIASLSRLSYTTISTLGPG
# Test: Antagonist activity at CCK2 receptor in perfused rat stomach assessed as inhibition of pentagastrin-stimulated gastric acid secretion
# Type: functional, tissue-based
# Settings: read-out: pA2 (converted)
row,Compound,Kb [nM]
1,CC(C)(C)C(=O)CN1C(=O)N(CC(=O)Nc2cccc(SCC(=O)O)c2)N=C(C2CCCCC2)c2ccccc21,2.75
2,CN(c1cccc(NC(=O)CN2N=C(C3CCCCC3)c3ccccc3N(CC(=O)C(C)(C)C)C2=O)c1)c1nn[nH]n1,24
3,O=C(CN1N=C(C2CCCCC2)c2ccccc2N(CC(=O)C2CCCC2)C1=O)Nc1cccc(C(=O)O)c1,1.95

# Target: T3, Gastrin/cholecystokinin type B receptor (Canis lupus familiaris, UniProt P30552)
# T3 sequence (P30552 whole entry): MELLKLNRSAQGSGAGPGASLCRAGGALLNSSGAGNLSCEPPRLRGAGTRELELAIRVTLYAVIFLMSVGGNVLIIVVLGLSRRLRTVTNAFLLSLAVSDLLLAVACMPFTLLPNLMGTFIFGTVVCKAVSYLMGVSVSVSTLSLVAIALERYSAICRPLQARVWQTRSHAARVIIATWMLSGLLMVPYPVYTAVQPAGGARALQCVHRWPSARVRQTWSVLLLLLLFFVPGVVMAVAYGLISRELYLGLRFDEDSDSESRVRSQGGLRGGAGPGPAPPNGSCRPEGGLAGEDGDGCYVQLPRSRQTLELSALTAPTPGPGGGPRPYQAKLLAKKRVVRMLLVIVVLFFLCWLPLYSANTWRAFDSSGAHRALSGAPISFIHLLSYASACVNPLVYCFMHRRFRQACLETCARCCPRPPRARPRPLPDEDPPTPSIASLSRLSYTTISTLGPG
# Test: Displacement of [125I]BH-[…] from CCK2 receptor in canine gastric mucosa
# Type: tissue-based
# Settings: not given
row,Compound,Ki [nM]
1,CC(C)(C)C(=O)CN1C(=O)N(CC(=O)Nc2cccc(SCC(=O)O)c2)N=C(C2CCCCC2)c2ccccc21,5.75
2,CN(c1cccc(NC(=O)CN2N=C(C3CCCCC3)c3ccccc3N(CC(=O)C(C)(C)C)C2=O)c1)c1nn[nH]n1,4.68

# Continued, values first:
row,Ki [nM],Compound
1,7.08,O=C(CN1N=C(C2CCCCC2)c2ccccc2N(CC(=O)C2CCCC2)C1=O)Nc1cccc(C(=O)O)c1
2,26.3,Cc1ccccc1C(=O)CN1C(=O)N(CC(=O)Nc2cccc(C(=O)O)c2)N=C(C2CCCCC2)c2ccccc21

# Target: T4, Gastrin/cholecystokinin type B receptor (Canis lupus familiaris) (UniProt P30552)
# T4 sequence (whole entry): T3 sequence (P30552 whole entry)
# Test: Inhibition of pentagastrin-stimulated gastric acid secretion in conscious gastric fistula dog at 1 mg/kg, iv
# Type: functional, organism-based
# Set-up: dose 1 mg/kg
# Settings: Stomach
row,Compound,inhibition [%]
1,O=C(O)c1cccc(NC(=O)c2nc(C3CCCCC3)[nH]c2COC23CC4CC(CC(C4)C2)C3)c1,66

# Target: T4, Gastrin/cholecystokinin type B receptor (Canis lupus familiaris)
# Test: Inhibition of pentagastrin-stimulated gastric acid secretion in conscious gastric fistula dog at 0.05 mg/kg, iv
# Type: functional, organism-based
# Set-up: dose 0.05 mg/kg
# Settings: Stomach
row,Compound,inhibition [%]
1,O=C(O)c1cccc(NC(=O)c2nc(C3CCCCC3)[nH]c2COC23CC4CC(CC(C4)C2)C3)c1,97

# Target: T5, Gastrin/cholecystokinin type B receptor (Homo sapiens, UniProt P32239)
# T5 sequence (P32239 whole entry): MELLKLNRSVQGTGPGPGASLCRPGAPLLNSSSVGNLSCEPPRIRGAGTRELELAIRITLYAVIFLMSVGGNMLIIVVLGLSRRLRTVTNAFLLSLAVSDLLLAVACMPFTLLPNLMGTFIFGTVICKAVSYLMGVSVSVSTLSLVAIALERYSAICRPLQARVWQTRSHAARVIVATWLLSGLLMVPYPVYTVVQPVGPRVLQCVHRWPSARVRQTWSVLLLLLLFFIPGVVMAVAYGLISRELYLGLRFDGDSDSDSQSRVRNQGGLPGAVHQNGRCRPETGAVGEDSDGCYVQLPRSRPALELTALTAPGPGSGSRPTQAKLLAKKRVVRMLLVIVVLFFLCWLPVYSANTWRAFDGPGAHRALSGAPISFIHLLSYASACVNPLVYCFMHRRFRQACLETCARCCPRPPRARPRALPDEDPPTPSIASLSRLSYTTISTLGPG
# Test: Displacement of [125I]BH-CCK-8S from human recombinant CCK2 receptor expressed in NIH3T3 cells
# Settings: not given
row,Compound,Ki [nM]
1,CC(C)(C)C(=O)CN1C(=O)N(CC(=O)Nc2cccc(NCC(=O)O)c2)N=C(C2CCCCC2)c2ccccc21,6.17
2,O=C(CN1N=C(C2CCCCC2)c2ccccc2N(CC(=O)C2CCCCC2)C1=O)Nc1cccc(C(=O)O)c1,0.794
3,CC(C)(C)C(=O)CN1C(=O)N(CC(=O)Nc2cccc(OCC(=O)O)c2)N=C(C2CCCCC2)c2ccccc21,5.5
4,CN(CC(=O)O)c1cccc(NC(=O)CN2N=C(C3CCCCC3)c3ccccc3N(CC(=O)C(C)(C)C)C2=O)c1,1.07
5,CC(C)(C)C(=O)CN1C(=O)N(CC(=O)Nc2cccc(C(=O)O)c2)N=C(C23CC4CC(CC(C4)C2)C3)c2ccccc21,24
6,CC(C)(C)C(=O)CN1C(=O)N(CC(=O)Nc2cccc(Cc3nnn[nH]3)c2)N=C(C2CCCCC2)c2ccccc21,4.68
7,CC(C)(C)C(=O)CN1C(=O)N(CC(=O)Nc2cccc(SCC(=O)O)c2)N=C(C2CCCCC2)c2ccccc21,0.646
8,CN(c1cccc(NC(=O)CN2N=C(C3CCCCC3)c3ccccc3N(CC(=O)C(C)(C)C)C2=O)c1)c1nn[nH]n1,1.95
9,O=C(O)c1cccc(NC(=O)c2nc(C3CCCCC3)[nH]c2COC23CC4CC(CC(C4)C2)C3)c1,19.5
10,CC(C)(C)C(=O)CN1C(=O)N(CC(=O)Nc2cccc(C(=O)NS(C)(=O)=O)c2)N=C(C2CCCCC2)c2ccccc21,3.89
11,O=C(CN1N=C(C2CCCCC2)c2ccccc2N(CC(=O)C23CC4CC(CC(C4)C2)C3)C1=O)Nc1cccc(C(=O)O)c1,5.62
12,CC(C)(C)C(=O)CN1C(=O)N(CC(=O)Nc2cccc(S(=O)(=O)CC(=O)O)c2)N=C(C2CCCCC2)c2ccccc21,4.27

# More lines, now with the values ahead:
row,Ki [nM],Compound
1,1200,CN1C(=O)N(CC(=O)Nc2cccc(C(=O)O)c2)N=C(C2CCCCC2)c2ccccc21
2,4.79,CC(C)(C)C(=O)CN1C(=O)N(CC(=O)Nc2cccc(C(=O)O)c2)N=C(C2CCCCCC2)c2ccccc21
3,1,O=C(CN1N=C(C2CCCCC2)c2ccccc2N(CC(=O)C2CCCC2)C1=O)Nc1cccc(C(=O)O)c1
4,20.4,CC(C)CCN1C(=O)N(CC(=O)Nc2cccc(C(=O)O)c2)N=C(C2CCCCC2)c2ccccc21
5,24,CC(C)(C)C(=O)CN1C(=O)N(CC(=O)Nc2cccc(C(=O)O)c2)N=C(C2CCCC2)c2ccccc21
6,16.2,O=C(CN1N=C(C2CCCCC2)c2ccccc2N(CC(=O)N2CCCC2)C1=O)Nc1cccc(C(=O)O)c1
7,7.59,Cc1ccccc1C(=O)CN1C(=O)N(CC(=O)Nc2cccc(C(=O)O)c2)N=C(C2CCCCC2)c2ccccc21
8,331,CC(=O)CN1C(=O)N(CC(=O)Nc2cccc(C(=O)O)c2)N=C(C2CCCCC2)c2ccccc21
